Where no end group is shown, it is not given here.
Assays:
human neprilysin (NEP) = test: Cleavage by NEP; assay type: in vitro ADME; details: isolated human neprilysin (NEP)
Source text: Table 8 Hydrolyses of α-scoliidine and β-scoliidine by human neprilysin (NEP) and angiotensin-converting enzyme (ACE). | column: Cleavage (%)

PC12 cells [1] = system: PC12 cells
Method: (§1) Neuronal cell line (PC12) was used to evaluate the neuroprotective effects of α-scoliidine and β-scoliidine against oxidative stress in vitro. PC12 cell is derived from a transplantable rat pheochromocytoma and was purchased from American Type Culture Collection (USA) (ATCC® CRL-1721™). Cells were routinely cultured in DMEM medium (Sigma-Aldrich) supplemented with 10% fetal bovine serum (Gibco, Waltham, USA), 1% (v/v) of 10000 U/mL penicillin, 10 mg/mL streptomycin and 25 μg/mL amphotericin B solution (Sigma-Aldrich) at 37 °C in an atmosphere of 5% CO2 and 95% air (Water Jacketed CO2 Incubator, Thermo Scientific). At 80% confluence, cells were passaged using trypsin-EDTA solution [0.05% (m/v) trypsin and 0.02% (m/v) EDTA]. Culture medium was replaced every 2-3 days.
PC12 cells were seeded into 96-well plates (Nest Biotechnology, Rahway, USA), at 2.0 × 10^4 cells per well, and were treated with different concentrations (0.1 to 10 µM) of α-scoliidine and β-scoliidine in a final volume of 0.15 mL. The plate was incubated at 37°C for 3, 6, 12, 24, and 48 h. For each concentration and time course studied, there were control and DMSO groups, which represent untreated cells (only one equal volumes of the culture medium) and treated with DMSO 2.5% (v/v) diluted in the medium culture, respectively. The cytotoxic effects of both compounds were determined using crystal violet assay, according to Feoktistova et al.. Briefly, the medium was aspirated, and the cells were washed twice in a gentle stream of tap water. Then, 50 μL of a 0.5 % (v/v) crystal violet staining solution was added to each well, and incubated for 20 min at room temperature on a bench rocker with a frequency of 20 oscillations per min. The plate was washed four times and air-dried for at least 2 h at room temperature. Subsequently, methanol (200 μL) was added to each well, and the plate was incubated with its lid on for 20 min at room temperature on a bench rocker with a frequency of 20 oscillations per min. After, the absorbance of the sample was measured at 570 nm using a SpectraMax reader (Molecular Devices, CA, USA). The cytotoxicity was expressed as percentage (%) of cell integrity relative to control cells (100%).
(§2) All data are presented as mean ± SD of three independent experiments (n = 3) in triplicate. Data were analyzed using one-way analysis of variance (ANOVA) for between-groups comparisons followed by a Tukey’s post-hoc test for multiple comparisons. Values of p < 0.05 were considered to be statistically significant. The analyses were performed using GraphPad Prism 6.0 software (GraphPad Software, Inc., La Jolla, CA).

ACE = test: Cleavage by ACE (stability test, HPLC); assay type: in vitro ADME, rabbit; details: peptide 30 µM, 37°C, four hours, RP-HPLC, UV 214 nm; for metabolised at 4 h, 30 µM: rabbit, ACE
Source text: All chemicals used in the present study were of analytical reagent grade (purity higher than 95%) and purchased from Calbiochem-Novabiochem Corporation (USA), Gibco BRL (New York, USA), Fluka Chemical Corp. (Buchs, Switzerland) or Sigma-Aldrich Corporation (MO, USA). The ACE I from rabbit lung (EC 3.4.15.1) from Sigma-Aldrich. For the reverse phase chromatography, acetonitrile and TFA were acquired from J.T. Baker. The FRET substrate Abz-FRK(Dnp)P-OH (used by ACE-I assays) were provided by Prof. Adriana Carmona, from the Department of Biophysics of UNIFESP-EPM, São Paulo, Brazil.
Both peptides (30 µM) were incubated separately with ACE ([…]) at 37°C for four hours. Samples containing only the synthetic peptides were used as negative control. After incubation, samples were analyzed by reverse phase chromatography on HPLC (Prominence, Shimadzu), using a Shim-pack VP-ODS C-18 column (4.6× 150 mm). Solvents used were 0.1% (v/v) TFA in water (solvent A), and acetonitrile plus solvent A (9:1) as solvent B. Separations were performed at a flow rate of 1 mL/min and a 10-60% gradient of solvent B over 20 min. In all cases, elution was followed by the measurement of ultraviolet absorption (214 nm).

PC12 cells [2] = details: cited from earlier work
PC12 cells [3] = assay type: cell-based, rat
Method: Culture medium was replaced every 2-3 days.
The effects of α-scoliidine or β-scoliidine on the mitochondrial metabolism of PC12 cells were estimated using 3-(4,5-dimethylthiazol-2-yl)-2,5-diphenyltetrazolium bromide (MTT) reduction assay, as previously described. […] In addition, to the experimental groups mentioned above, two more groups were included in which cells were treated with L-N^Ω-Nitroarginine methyl ester (L-Name; 1 mM) and Bradykinin (Bk; 0.3 µM) in the presence or absence of H2O2. After treatments, cells were treated with 0.5 mg/mL MTT in the same medium culture for 3 h at 37°C. The resulting formazan produced by both cell treatments were dissolved by addition of DMSO. The amount of MTT formazan dissolved in DMSO was determined by measuring absorbance with a microplate reader (Spectramax M3 multi-mode, Molecular Devices, CA, EUA) at 540 nm. Data were expressed as the mean ± SD of mitochondrial metabolism percentage in relation to the control.

human neural stem cells = details: cited from earlier work
Source text: (§3) BPP-11e (<[…]) and BPP-AP (<[…]), for example, ...

cells = details: cited from earlier work
Source text: The phenomenon of synergistic toxicity of H2O2 effects when two agents are used together, and efficiently potentiate cell damage, has been reported in the literature. Of the several examples of H2O2 toxicity potentiation by oth ...

[4] = system: human neuroblast-like cell line SH-SY5Y; details: cited from earlier work
Source text: as §3

PC12 cells [5] = system: PC12 cells; remark: listed apart in the source
Method: as §1
PC12 cells were seeded at 2 x 10^4 cells/well in a 96-well plate (Nest Biotechnology, Rahway, USA) for 24 h, and then two neuroprotective assays were evaluated: 1) Cells were pre-treated with α-scoliidine or β-scoliidine (1 µM) at 37°C for 22 h and, after the mediums were replaced containing the peptide and H2O2 (0.6 mM) and incubated for 2 h more; 2) Cells were pre-treated with α-scoliidine or β-scoliidine (1 µM) for 4 h at 37°C and, after the mediums were replaced containing peptide and H2O2 (0.6 mM) and incubated for 20 h more. The control, α-scoliidine and β-scoliidine groups (without H2O2) were incubated under the same conditions. Next, all experimental groups were analyzed by the crystal violet assay.
as §2

[6] = system: nicotinic acetylcholine receptor (nAChR); details: prey central nervous system; cited from earlier work
Source text: The first study of solitary wasp venoms was reported in 1987. Two kinins, threonine^6-bradykinin (Thr^6-BK) and megascoliakinin, were isolated and characterized from the venoms of the European scoliid wasps Colpa interrupta and Megascolia flavifrons, respectively. […] Thr^6-BK may be a common component of solitary scoliid wasp venoms, since we identified this peptide as a major component in three scoliid wasp venoms found in Japan [[1 ...

[7] = 0.1 to 10 µM, n = 3 in triplicate

DYVTVKGFSPLR [α-scoliidine]
metabolised (human neprilysin (NEP)): < 0.01%
Cytotoxicity, cell integrity vs control or DMSO (PC12 cells [1]; 0.1 to 10 µM, 3, 6, 12, 24, and 48 h, mean ± SD of three independent experiments in triplicate): did not show any significant cytotoxicity (p > 0.05) in all dose concentrations, and at the times tested
Cell integrity / neurotoxicity at 6 h (PC12 cells [1]; [7]): showed a tendency for neurotoxicity at 6 h of treatment
Cleavage by ACE (ACE): not cleaved by the metallopeptidase
metabolised at 4 h, 30 µM (ACE): < 0.01%

Cc1cccc([C@H](C)c2cnc[nH]2)c1C [Dexmedetomidine]
Proliferation in a stress condition (PC12 cells [2]): dose-dependent restored impaired proliferation of PC12 cells in a stress condition
Protection from ROS-induced cytotoxicity (PC12 cells [2]): protected PC12 cells from ROS-induced cytotoxicity
p21 and cyclin D1 expression (PC12 cells [2]): decreased expression of tumor suppressor protein p21 and increased expression of cell cycle-related cyclin D1

DYVTVKGFSPLRKA [β-scoliidine]
metabolised (human neprilysin (NEP)): < 0.01%
Cell integrity / neurotoxicity at 6 h (PC12 cells [1]; [7]): decreased cell integrity after 6 h of treatment in all concentration tested
Cleavage by ACE (ACE): not cleaved by the metallopeptidase
metabolised at 4 h, 30 µM (ACE): < 0.01%

COC(=O)[C@@H](N)CCCNC(N)=N[N+](=O)[O-] [L-Name, L-N^Ω-Nitroarginine methyl ester]
Metabolic viability under H2O2 (PC12 cells [3]; pre-treatment 4 h, then + H2O2 0.6 mM 20 h, peptides 1 µM, L-Name 1 mM, Bk 0.30 μM, MTT): prevented the reduction of metabolic viability

Aβ 42: amyloid-β peptide (Aβ) isoform, Aβ 42
Effect on cell proliferation (human neural stem cells): promotes cell proliferation of human neural stem cells in a concentration-dependent manner

O=C1O[C@H]([C@@H](O)CO)C(O)=C1O [ascorbic acid]
Effect on intracellular oxidative potential of H2O2 (cells): enhancement of the intracellular oxidative potential of H2O2

<EARPPHPPIPP [BPP-11e]
Neuroprotection against H2O2-induced oxidative stress [4]: not good neuroprotective peptides against the H2O2-induced oxidative stress

<EARPPHPPIPPAP [BPP-AP]
Neuroprotection against H2O2-induced oxidative stress [4]: not good neuroprotective peptides against the H2O2-induced oxidative stress

OO [H2O2, hydrogen peroxide]
Metabolic viability (PC12 cells [3]): 32.23 ± 0.96%
H2O2 concentration above which cytotoxic (PC12 cells [5]): greater than 0.5 mM
H2O2 cytotoxicity dose response, chronic (PC12 cells [5]): also showed a dose-response effect
Reduction of cell viability by H2O2 (PC12 cells [5]): ~ 60%

C[S+](C)[O-] [DMSO, dimethyl sulfoxide]
Cell integrity after 24 and 48 h (PC12 cells [1]; 24 and 48 h, compared to the control group, peptides 0.1 to 10 µM, DMSO 2.5% (v/v), n = 3 in triplicate): decreased the cell integrity after 24 and 48 h compared to the control group

RPPGFTPFRKA [megascoliakinin]
Block of nAChR synaptic transmission [6]: irreversibly block the synaptic transmission of the nicotinic acetylcholine receptor (nAChR) in the prey central nervous system

RPPGFTPFR [Thr^6-BK, threonine^6-bradykinin]
Block of nAChR synaptic transmission [6]: irreversibly block the synaptic transmission of the nicotinic acetylcholine receptor (nAChR) in the prey central nervous system
